The IC50 is the concentration that gives 50% inhibition.

The target in the experiment is T1, MAGL (Homo sapiens, UniProt Q99685).
T1 sequence (Q99685 1-303): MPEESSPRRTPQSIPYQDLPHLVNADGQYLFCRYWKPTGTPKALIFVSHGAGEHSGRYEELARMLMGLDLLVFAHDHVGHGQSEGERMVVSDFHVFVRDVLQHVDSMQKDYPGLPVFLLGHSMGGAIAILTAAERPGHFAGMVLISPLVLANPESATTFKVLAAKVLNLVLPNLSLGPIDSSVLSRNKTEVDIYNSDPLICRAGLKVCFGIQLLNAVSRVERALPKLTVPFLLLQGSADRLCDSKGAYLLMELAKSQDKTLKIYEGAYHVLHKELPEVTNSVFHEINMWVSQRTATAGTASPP
As to the kind of experiment: 2-AG assay (MAGL inhibitory activity, hydrolysis of 2-arachidonoylglycerol to arachidonic acid followed by mass spectrometry). In kind it is biochemical. The settings on record: 8 μM 2-arachidonoylglycerol, 15 min pre-incubation, 30 min incubation at RT, RapidFire MS readout. The gist of the method: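 Human MAGL ([…] final) pre-incubated 15 min at RT with compound in 50 mM TRIS, 1 mM EDTA, 0.01% Tween-20, 2.5% DMSO; 8 μM 2-AG then added for 30 min at RT. Acetonitrile quench with d8-arachidonic acid; arachidonic acid measured by RapidFire SPE–MS/MS, activity from arachidonic acid/d8 ratio.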
In turn, `O=C(N1CC(c2ccc(N3CC(O)(C(F)(F)F)C3)nc2)C1)N1CC2(CC(n3cnc(C4CC4)n3)C2)C1` [Example 206, [6-(3-cyclopropyl-1,2,4-triazol-1-yl)-2-azaspiro[3.3]heptan-2-yl]-[3-[6-[3-hydroxy-3-(trifluoromethyl)azetidin-1-yl]-3-pyridyl]azetidin-1-yl]methanone] displayed an IC50 of 0.9 nM.

Compound `O=C(N1CCC(C(c2ccc(F)cc2)c2nc(C3CC3)no2)CC1)N1CC2(CC(n3cnc(C4CC4)n3)C2)C1` (centres unmarked) [Example 207, [4-[(3-cyclopropyl-1,2,4-oxadiazol-5-yl)-(4-fluorophenyl)methyl]-1-piperidyl]-[6-(3-cyclopropyl-1,2,4-triazol-1-yl)-2-azaspiro[3.3]heptan-2-yl]methanone] displayed an IC50 of 1 nM.

`O=C(N1CC(Oc2ccc(C3CC3)nc2F)C1)N1CC2(CC(n3cnc(C4CC4)n3)C2)C1` [Example 208, [3-[(6-cyclopropyl-2-fluoro-3-pyridyl)oxy]azetidin-1-yl]-[6-(3-cyclopropyl-1,2,4-triazol-1-yl)-2-azaspiro[3.3]heptan-2-yl]methanone] registered an IC50 of 1.1 nM.

`O=C(N1CC2(CC(n3cnc(C4CC4)n3)C2)C1)N1CC2(C1)CN(S(=O)(=O)c1cccc(C(F)(F)F)c1)C2` [Example 209, [6-(3-cyclopropyl-1,2,4-triazol-1-yl)-2-azaspiro[3.3]heptan-2-yl]-[2-[3-(trifluoromethyl)phenyl]sulfonyl-2,6-diazaspiro[3.3]heptan-6-yl]methanone] gave an IC50 of 1.2 nM.

`O=C(N1CC(Oc2ccc(C3CC3)cn2)C1)N1CC2(CC(n3cnc(C4CC4)n3)C2)C1` [Example 210, [3-[(5-cyclopropyl-2-pyridyl)oxy]azetidin-1-yl]-[6-(3-cyclopropyl-1,2,4-triazol-1-yl)-2-azaspiro[3.3]heptan-2-yl]methanone] displayed an IC50 of 1.3 nM.

In turn, `O=C(N1CC2(CC(n3cnc(C4CC4)n3)C2)C1)N1CC2(C1)CN(S(=O)(=O)c1ccc(F)cc1C(F)(F)F)C2` [Example 211, (6-(3-cyclopropyl-1H-1,2,4-triazol-1-yl)-2-azaspiro[3.3]heptan-2-yl)(6-((4-fluoro-2-(trifluoromethyl)phenyl)sulfonyl)-2,6-diazaspiro[3.3]heptan-2-yl)methanone] registered an IC50 of 1.4 nM.

`O=C(N1CC(c2ccc(N3CCC(O)(C(F)(F)F)C3)nc2)C1)N1CC2(CC(n3cnc(C4CC4)n3)C2)C1` (centres unmarked) [Example 212, [6-(3-cyclopropyl-1,2,4-triazol-1-yl)-2-azaspiro[3.3]heptan-2-yl]-[3-[6-[3-hydroxy-3-(trifluoromethyl)pyrrolidin-1-yl]-3-pyridyl]azetidin-1-yl]methanone] came in with a 50% inhibitory concentration (IC50) of 1.5 nM.

`O=C(N1CC2(CC(n3cnc(C4CC4)n3)C2)C1)N1CC2(C1)CN(S(=O)(=O)c1cc(F)cc(F)c1)C2` [Example 213, [6-(3-cyclopropyl-1,2,4-triazol-1-yl)-2-azaspiro[3.3]heptan-2-yl]-[2-(3,5-difluorophenyl)sulfonyl-2,6-diazaspiro[3.3]heptan-6-yl]methanone] registered an IC50 of 1.6 nM.

The compound `CC(C)(C)CS(=O)(=O)NC1CC2(C1)CN(C(=O)N1CC3(CC(n4cnc(C5CC5)n4)C3)C1)C2` [Example 215, N-[2-[6-(3-cyclopropyl-1,2,4-triazol-1-yl)-2-azaspiro[3.3]heptane-2-carbonyl]-2-azaspiro[3.3]heptan-6-yl]-2,2-dimethyl-propane-1-sulfonamide] came in with an IC50 of 1.7 nM.

Take `O=C(N1CC(c2ccc(N3CC[C@@](O)(C(F)(F)F)C3)nc2)C1)N1CC2(CC(n3cnc(C4CC4)n3)C2)C1` [Example 216]: the midpoint of inhibition, the IC50, lay at 2 nM.

Compound `O=C(N1CC2(CC(Cc3ccc(F)cn3)C2)C1)N1CC2(CC(n3cnc(C4CC4)n3)C2)C1` [Example 217, [6-(3-cyclopropyl-1,2,4-triazol-1-yl)-2-azaspiro[3.3]heptan-2-yl]-[6-[(5-fluoro-2-pyridyl)methyl]-2-azaspiro[3.3]heptan-2-yl]methanone] had an IC50 of 2 nM.

Take `Cc1cn(C2CC3(C2)CN(C(=O)N2CC4(CC(Cc5ccc(F)cc5F)C4)C2)C3)cn1` [Example 218, [6-[(2,4-difluorophenyl)methyl]-2-azaspiro[3.3]heptan-2-yl]-[6-(4-methylimidazol-1-yl)-2-azaspiro[3.3]heptan-2-yl]methanone]: half-maximal inhibition (IC50) was put at 2.1 nM.

`COc1c(OC2CN(C(=O)N3CC4(CC(n5cnc(C6CC6)n5)C4)C3)C2)cccc1C(F)(F)F` [Example 219, (6-(3-cyclopropyl-1H-1,2,4-triazol-1-yl)-2-azaspiro[3.3]heptan-2-yl)(3-(2-methoxy-3-(trifluoromethyl)phenoxy)azetidin-1-yl)methanone] came in with an IC50 of 2.2 nM.

Turning to `O=C(N1CC2(CC(n3cnc(C4CC4)n3)C2)C1)N1CC2(CN(Cc3cc(F)cc(F)c3)C2)C1` [Example 221, [6-(3-cyclopropyl-1,2,4-triazol-1-yl)-2-azaspiro[3.3]heptan-2-yl]-[6-[(3,5-difluorophenyl)methyl]-2,6-diazaspiro[3.3]heptan-2-yl]methanone], the IC50 came to 2.5 nM.

Regarding `O=C(N1CC(Oc2cccc(C(F)(F)F)c2Cl)C1)N1CC2(CC(n3cnc(C4CC4)n3)C2)C1` [Example 222, (3-(2-chloro-3-(trifluoromethyl)phenoxy)azetidin-1-yl)(6-(3-cyclopropyl-1H-1,2,4-triazol-1-yl)-2-azaspiro[3.3]heptan-2-yl)methanone], 2.6 nM corresponded to half-maximal inhibition (IC50).

With `O=C(N1CC2(CC(n3cnc(C4CC4)n3)C2)C1)N1CC2(C1)CN(S(=O)(=O)c1ccccc1C(F)(F)F)C2` [Example 223, [6-(3-cyclopropyl-1,2,4-triazol-1-yl)-2-azaspiro[3.3]heptan-2-yl]-[2-[2-(trifluoromethyl)phenyl]sulfonyl-2,6-diazaspiro[3.3]heptan-6-yl]methanone], the midpoint of inhibition, the IC50, lay at 3 nM.

In turn, `O=C(N1CC2(CC(n3cnc(C4CC4)n3)C2)C1)N1CC2(C1)CN(S(=O)(=O)C1CCCCC1)C2` [Example 224, (2-cyclohexylsulfonyl-2,6-diazaspiro[3.3]heptan-6-yl)-[6-(3-cyclopropyl-1,2,4-triazol-1-yl)-2-azaspiro[3.3]heptan-2-yl]methanone] had an IC50 of 3 nM.

Consider `O=C(N1CC2(CC(n3cnc(C4CC4)n3)C2)C1)N1CC2(C1)CN(S(=O)(=O)c1ccc(C(F)(F)F)cc1)C2` [Example 225, [6-(3-cyclopropyl-1,2,4-triazol-1-yl)-2-azaspiro[3.3]heptan-2-yl]-[2-[4-(trifluoromethyl)phenyl]sulfonyl-2,6-diazaspiro[3.3]heptan-6-yl]methanone], for which it took 3.3 nM to reach half-maximal inhibition (IC50).

`O=C(N1CC2(CC(n3cnc(C4CC4)n3)C2)C1)N1CC2(C1)CN(S(=O)(=O)c1cc(F)cc(C(F)(F)F)c1)C2` [Example 226, [6-(3-cyclopropyl-1,2,4-triazol-1-yl)-2-azaspiro[3.3]heptan-2-yl]-[2-[3-fluoro-5-(trifluoromethyl)phenyl]sulfonyl-2,6-diazaspiro[3.3]heptan-6-yl]methanone]: half-maximal inhibition (IC50) required 3.6 nM.

Compound `O=C(N1CCC([C@@H](c2ccc(F)cc2)c2nc(C3CC3)no2)CC1)N1CC2(CC(n3cnc(C4CC4)n3)C2)C1` [Example 227, [4-[(S)-(3-cyclopropyl-1,2,4-oxadiazol-5-yl)-(4-fluorophenyl)methyl]-1-piperidyl]-[6-(3-cyclopropyl-1,2,4-triazol-1-yl)-2-azaspiro[3.3]heptan-2-yl]methanone] registered an IC50 of 3.8 nM.

The compound `O=C(N1CC2(CC(n3cnc(C4CC4)n3)C2)C1)N1CC2(C1)CN(S(=O)(=O)c1ccc(F)cc1Cl)C2` [Example 228, [2-(2-chloro-4-fluoro-phenyl)sulfonyl-2,6-diazaspiro[3.3]heptan-6-yl]-[6-(3-cyclopropyl-1,2,4-triazol-1-yl)-2-azaspiro[3.3]heptan-2-yl]methanone] yielded a half-maximal inhibitory concentration (IC50) of 4.2 nM.

For the compound `COC(=O)c1ccccc1CN1CC2(C1)CN(C(=O)N1CC3(CC(n4cnc(C5CC5)n4)C3)C1)C2` [Example 229, methyl 2-[[2-[6-(3-cyclopropyl-1,2,4-triazol-1-yl)-2-azaspiro[3.3]heptane-2-carbonyl]-2,6-diazaspiro[3.3]heptan-6-yl]methyl]benzoate], the concentration for half-maximal inhibition (IC50) worked out at 4.5 nM.

`O=C(N1CC2(CC(n3cnc(C4CC4)n3)C2)C1)N1CC2(C1)CN(S(=O)(=O)c1ccc(OC(F)(F)F)cc1)C2` [Example 230, [6-(3-cyclopropyl-1,2,4-triazol-1-yl)-2-azaspiro[3.3]heptan-2-yl]-[2-[4-(trifluoromethoxy)phenyl]sulfonyl-2,6-diazaspiro[3.3]heptan-6-yl]methanone] registered an IC50 of 4.6 nM.

In the case of `O=C(N1CC2(CC(n3cnc(C4CC4)n3)C2)C1)N1CC2(C1)CN(S(=O)(=O)c1ccc(F)cc1F)C2` [Example 231, [6-(3-cyclopropyl-1,2,4-triazol-1-yl)-2-azaspiro[3.3]heptan-2-yl]-[2-(2,4-difluorophenyl)sulfonyl-2,6-diazaspiro[3.3]heptan-6-yl]methanone], 4.6 nM corresponded to half-maximal inhibition (IC50).

In turn, `O=C(N1CC2(CC(n3cnc(C4CC4)n3)C2)C1)N1CC2(CN(Cc3ccc(C(F)(F)F)cn3)C2)C1` [Example 232] displayed an IC50 of 4.6 nM.

`O=C(N1CC2(CC(n3cnc(C4CC4)n3)C2)C1)N1CC2(C1)CN(S(=O)(=O)c1cccc(OC(F)(F)F)c1)C2` [Example 233, [6-(3-cyclopropyl-1,2,4-triazol-1-yl)-2-azaspiro[3.3]heptan-2-yl]-[2-[3-(trifluoromethoxy)phenyl]sulfonyl-2,6-diazaspiro[3.3]heptan-6-yl]methanone] gave an IC50 of 5.3 nM.

These data come from patent US20240199587A1, “HETEROCYCLIC COMPOUNDS” (Hoffmann-La Roche Inc., priority 2021, published 2024).
